# Test results taken from patent US6386145B1, “Process for curing diseases in cultured fish” (B. L. Mitchell, Inc., priority 2000, dated 2002).
# System: catfish diagnosed as having PGD (proliferative gill disease)
# Assay: treatment of rearing pond containing catfish diseased with PGD
# Assay type: in vivo
# Method: In order to effect these concentrations in the tank or pond where the diseased fish are contained the concentrated solution of Chloramine-T is prepared for using the correct amount of Chloramine-T for the volume of water which is contained in the tank or pond where the diseased fish reside. This concentrated solution is then spread evenly over the surface of the pond or tank via the use of a chemical boat. In order to aid mixing aeration equipment is run one hour before the application and 35 hours after the application.
# 1. A pond of 17 acres, 4.5 feet deep holding approximately 2 million catfish contained approximately 76.5 acre feet of water. […] […] Upon examination the whole fish population was diagnosed as having PGD in various stages with some of the fish dying. 411.57 pounds of Chloramine-T was dissolved in 50 gallons of water contained in a tank on a chemical boat, as the boat moved over the pond the Chloramine-T was applied evenly over the surface of the pond.
# [1] = Example 1, catfish 2 to 4 inches, 2 ppm, after 72 hours
# [2] = Example 2, catfish 6 to 9 inches, 2 ppm, after 72 hours
# [3] = Example 3, catfish 1 to 1.25 pounds, 2 ppm, after 72 hours
# [4] = Example 4, catfish 8 to 11 inches, 2 ppm, after 72 hours
# [5] = Example 5, catfish 8 to 11 inches, 1.5 ppm, after 72 hours
smiles,measurement,setting,value
"Cc1ccc(S(=O)(=O)NCl)cc1.[Na] [Chloramine-T, N-Sodium, N-chloro-para-toluenesulfonamide]",death rate of the fish,"Example 1, catfish 2 to 4 inches, approx. 2 million, 2 ppm in pond, 24 hours after application",substantially decreased
same,death rate of the fish,"Example 1, catfish 2 to 4 inches, 2 ppm, after 48 hours",further decreased
same,PGD status upon examination of the fish population,[1],in remission
same,death of fish,[1],essentially stopped
same,PGD status upon examination of the fish population,"Example 1, catfish 2 to 4 inches, 2 ppm, after 96 hours",free of PGD
same,death rate of the fish,"Example 2, catfish 6 to 9 inches, approx. 1 million, 2 ppm in pond, 24 hours after application",substantially decreased
same,death rate of the fish,"Example 2, catfish 6 to 9 inches, 2 ppm, after 48 hours",further decreased
same,PGD status upon examination of the fish population,[2],in remission
same,death of fish,[2],essentially stopped
same,PGD status upon examination of the fish population,"Example 2, catfish 6 to 9 inches, 2 ppm, after 96 hours",free of PGD
same,death rate of the fish,"Example 3, catfish 1 to 1.25 pounds, approx. 125,000, 2 ppm in pond, 24 hours after application",substantially decreased
same,death rate of the fish,"Example 3, catfish 1 to 1.25 pounds, 2 ppm, after 48 hours",further decreased
same,PGD status upon examination of the fish population,[3],in remission
same,death of fish,[3],essentially stopped
same,PGD status upon examination of the fish population,"Example 3, catfish 1 to 1.25 pounds, 2 ppm, after 96 hours",free of PGD
same,death rate of the fish,"Example 4, catfish 8 to 11 inches, approx. 700,000, 2 ppm in pond, 24 hours after application",substantially decreased
same,death rate of the fish,"Example 4, catfish 8 to 11 inches, 2 ppm, after 48 hours",further decreased
same,PGD status upon examination of the fish population,[4],in remission
same,death of fish,[4],essentially stopped
same,PGD status upon examination of the fish population,"Example 4, catfish 8 to 11 inches, 2 ppm, after 96 hours",free of PGD
same,death rate of the fish,"Example 5, catfish 8 to 11 inches, approx. 700,000, 1.5 ppm in pond, 24 hours after application",no decrease
same,death rate of the fish,"Example 5, catfish 8 to 11 inches, 1.5 ppm, after 48 hours",not decreased
same,PGD status upon examination of the fish population,[5],continued unabated
same,death of fish,[5],continued
same,PGD status upon examination of the fish population,"Example 5, catfish 8 to 11 inches, 1.5 ppm, after 96 hours",continued to die and be afflicted with PGD
same,survival of the diseased fish,"Example 6, catfish 8 to 11 inches, approx. 450,000, 387 pounds in 48 acre feet, printed 1.5 ppm, 24 hours after application",all of the fish were dead
same,control of PGD in diseased catfish (summary of Examples 1 through 6),concentrations of less than 2 ppm,ineffective
same,toxicity to diseased catfish (summary of Examples 1 through 6),concentrations of more than 3 ppm,kill the diseased catfish
same,control of PGD in diseased catfish (summary of Examples 1 through 6),use in accordance with the process of the invention (2 to 3 ppm),eliminates PGD
